Data taken from patent publication US20220132852A1, “PESTICIDALLY ACTIVE HETEROCYCLIC DERIVATIVES WITH SULFUR CONTAINING SUBSTITUENTS” (SYNGENTA CROP PROTECTION AG, priority 2019, published 2022).

Experiments:
Format in all cases: in vivo
[1] = tested on: Diabrotica balteata (Corn Root Worm); assay: Example B1: Activity against Diabrotica balteata (corn root worm), sprayed maize sprouts; conditions: 96 h, application rate 200 ppm, L2 larvae on sprayed maize sprouts, 4 days after infestation, read-out: effect in at least one of the two categories (mortality or growth inhibition)
Protocol: Example B1: Activity Against Diabrotica balteata (Corn Root Worm)
Maize sprouts placed onto an agar layer in 24-well microtiter plates were treated with aqueous test solutions prepared from 10′000 ppm DMSO stock solutions by spraying. After drying, the plates were infested with L2 larvae (6 to 10 per well). The samples were assessed for mortality and growth inhibition in comparison to untreated samples 4 days after infestation.

[2] = tested on: Myzus persicae (Green Peach Aphid); assay: whole plant or invertebrate; conditions: foliar, 144 h, application rate 200 ppm, sprayed sunflower leaf discs, mixed ages, 6 days after infestation
Protocol: Example B4: Activity Against Myzus persicae (Green Peach Aphid) Feeding/Contact Activity
Sunflower leaf discs were placed onto agar in a 24-well microtiter plate and sprayed with aqueous test solutions prepared from 10′000 ppm DMSO stock solutions. After drying, the leaf discs were infested with an aphid population of mixed ages. The samples were assessed for mortality 6 days after infestation.

[3] = tested on: Plutella xylostella (Diamond Back Moth); assay: Example B3: Activity against Plutella xylostella (diamond back moth), artificial diet; conditions: 192 h, application rate 200 ppm, eggs on artificial diet, 8 days after infestation, read-out: effect in at least one of the two categories (mortality or growth inhibition)
Protocol: Example B3: Activity Against Plutella xylostella (Diamond Back Moth)
24-well microtiter plates with artificial diet were treated with aqueous test solutions prepared from 10′000 ppm DMSO stock solutions by pipetting. After drying, Plutella eggs were pipetted through a plastic stencil onto a gel blotting paper and the plate was closed with it. The samples were assessed for mortality and growth inhibition in comparison to untreated samples 8 days after infestation. The following compounds gave an effect of at least 80% in at least one of the two categories (mortality or growth inhibition) at an application rate of 200 ppm: P2, P4, P5, P6, P8, P9, P10, P11, P12, P14, P15, P16, P17, P18, P19, P20, P21, P22, P23, P24, P25, P26, P27, P28, P29, P30, P31, P32, P33, P34, P35, P36, P38, P39, P40, P42, P45, P46, P47, P49, P50, P51, P52.

[4] = tested on: Euschistus heros (Neotropical Brown Stink Bug); assay: Example B2: Activity against Euschistus heros (neotropical brown stink bug), sprayed soybean leaves; conditions: 120 h, application rate 200 ppm, N2 nymphs on sprayed soybean leaves, 5 days after infestation, read-out: effect in at least one of the two categories (mortality or growth inhibition)
Protocol: Example B2: Activity Against Euschistus heros (Neotropical Brown Stink Bug)
Soybean leaves on agar in 24-well microtiter plates were sprayed with aqueous test solutions prepared from 10′000 ppm DMSO stock solutions. After drying the leaves were infested with N2 nymphs. The samples were assessed for mortality and growth inhibition in comparison to untreated samples 5 days after infestation.

[5] = tested on: Spodoptera littoralis (Egyptian Cotton Leaf Worm); assay: Example B6: Activity against Spodoptera littoralis (Egyptian cotton leaf worm); conditions: foliar, 72 h, application rate 200 ppm, L1 larvae on sprayed cotton leaf discs, 3 days after infestation, read-out: control (mortality, anti-feeding effect or growth inhibition)
Protocol: Example B6: Activity Against Spodoptera littoralis (Egyptian Cotton Leaf Worm)
Cotton leaf discs were placed onto agar in 24-well microtiter plates and sprayed with aqueous test solutions prepared from 10′000 ppm DMSO stock solutions. After drying the leaf discs were infested with five L1 larvae. The samples were assessed for mortality, anti-feeding effect, and growth inhibition in comparison to untreated samples 3 days after infestation. Control of Spodoptera littoralis by a test sample is given when at least one of the categories mortality, anti-feedant effect, and growth inhibition is higher than the untreated sample.

[6] = tested on: Myzus persicae (Green Peach Aphid); assay: Example B5: Activity against Myzus persicae (green peach aphid), systemic activity; conditions: 144 h, test rate 24 ppm, roots of pea seedlings in test solution, mixed ages, 6 days
Protocol: Example B5: Activity Against Myzus persicae (Green Peach Aphid) Systemic Activity
Roots of pea seedlings infested with an aphid population of mixed ages were placed directly into aqueous test solutions prepared from 10′000 DMSO stock solutions. The samples were assessed for mortality 6 days after placing seedlings into test solutions.

CC[S+]([O-])c1cccnc1-c1cc2ccn(CC(F)(F)C(F)(F)F)c2cn1 (centres unmarked) [Compound P7, 5-(3-ethylsulfinyl-2-pyridyl)-1-(2,2,3,3,3-pentafluoropropyl) pyrrolo[2,3-c]pyridine]
≥ 80%: percent effect (mortality or growth inhibition) at 200 ppm [1] | mortality at 200 ppm [2]

CCS(=O)(=O)c1cccnc1-c1cc2ccn(CC(F)(F)C(F)(F)F)c2cn1 [Compound P8, 5-(3-ethylsulfonyl-2-pyridyl)-1-(2,2,3,3,3-pentafluoropropyl) pyrrolo[2,3-c]pyridine]
≥ 80%: percent effect (mortality or growth inhibition) at 200 ppm [1] | percent effect (mortality or growth inhibition) at 200 ppm [3] | mortality at 200 ppm [2] | percent effect (mortality or growth inhibition) at 200 ppm [4] | percent control (mortality, anti-feedant effect or growth inhibition) at 200 ppm [5]

CCS(=O)(=O)c1ccc(NC)nc1-c1cc2cnn(CC(F)(F)C(F)(F)F)c2cn1 [Compound P14, 5-ethylsulfonyl-N-methyl-6-[1-(2,2,3,3,3-pentafluoropropyl)pyrazolo[3,4-c]pyridin-5-yl]pyridin-2-amine]
≥ 80%: percent effect (mortality or growth inhibition) at 200 ppm [1] | percent effect (mortality or growth inhibition) at 200 ppm [3] | mortality at 200 ppm [2] | percent effect (mortality or growth inhibition) at 200 ppm [4] | percent control (mortality, anti-feedant effect or growth inhibition) at 200 ppm [5]

CCS(=O)(=O)c1ccc(N(C)C(=O)C2CC2)nc1-c1cc2cnn(CC(F)(F)C(F)(F)F)c2cn1 [Compound P15, N-[5-ethylsulfonyl-6-[1-(2,2,3,3,3-pentafluoropropyl)pyrazolo[3,4-c]pyridin-5-yl]-2-pyridyl]-N-methyl-cyclopropane-carboxamide]
≥ 80%: percent effect (mortality or growth inhibition) at 200 ppm [1] | percent effect (mortality or growth inhibition) at 200 ppm [3] | mortality at 200 ppm [2] | percent effect (mortality or growth inhibition) at 200 ppm [4] | percent control (mortality, anti-feedant effect or growth inhibition) at 200 ppm [5]

CCS(=O)(=O)c1cc(N(C)C(C)=O)cnc1-c1cc2ccn(CC(F)(F)C(F)(F)F)c2cn1 [Compound P16, N-[5-ethylsulfonyl-6-[1-(2,2,3,3,3-pentafluoropropyl)pyrrolo[2,3-c]pyridin-5-yl]-3-pyridyl]-N-methyl-acetamide]
≥ 80%: percent effect (mortality or growth inhibition) at 200 ppm [1] | percent effect (mortality or growth inhibition) at 200 ppm [3] | mortality at 24 ppm [6] | mortality at 200 ppm [2] | percent control (mortality, anti-feedant effect or growth inhibition) at 200 ppm [5]

CCS(=O)(=O)c1cc(Oc2ccccn2)cnc1-c1cc2ccn(CC(F)(F)C(F)(F)F)c2cn1 [Compound P17, 5-[3-ethylsulfonyl-5-(2-pyridyloxy)-2-pyridyl]-1-(2,2,3,3,3-pentafluoropropyl) pyrrolo[2,3-c]pyridine]
≥ 80%: percent effect (mortality or growth inhibition) at 200 ppm [1] | percent effect (mortality or growth inhibition) at 200 ppm [3] | mortality at 200 ppm [2] | percent effect (mortality or growth inhibition) at 200 ppm [4] | percent control (mortality, anti-feedant effect or growth inhibition) at 200 ppm [5]

CCS(=O)(=O)c1cc(Oc2ccccn2)cnc1-c1cc2cnn(CC(F)(F)C(F)(F)F)c2cn1 [Compound P21]
≥ 80%: percent effect (mortality or growth inhibition) at 200 ppm [1] | percent effect (mortality or growth inhibition) at 200 ppm [3] | mortality at 200 ppm [2] | percent effect (mortality or growth inhibition) at 200 ppm [4] | percent control (mortality, anti-feedant effect or growth inhibition) at 200 ppm [5]

CCS(=O)(=O)c1ccc(-n2cncn2)nc1-c1cc2cnn(CC(F)(F)C(F)(F)F)c2cn1 [Compound P22, 5-[3-ethylsulfonyl-6-(1,2,4-triazol-1-yl)-2-pyridyl]-1-(2,2,3,3,3-pentafluoropropyl) pyrazolo[3,4-c] pyridine]
≥ 80%: percent effect (mortality or growth inhibition) at 200 ppm [1] | percent effect (mortality or growth inhibition) at 200 ppm [3] | mortality at 200 ppm [2] | percent effect (mortality or growth inhibition) at 200 ppm [4] | percent control (mortality, anti-feedant effect or growth inhibition) at 200 ppm [5]

CCS(=O)(=O)c1cc(C2(C#N)CC2)cnc1-c1cc2ccn(CC(F)(F)C(F)(F)F)c2cn1 [Compound P23, 1-[5-ethylsulfonyl-6-[1-(2,2,3,3,3-pentafluoropropyl)pyrrolo[2,3-c]pyridin-5-yl]-3-pyridyl] cyclopropane-carbonitrile]
≥ 80%: percent effect (mortality or growth inhibition) at 200 ppm [1] | percent effect (mortality or growth inhibition) at 200 ppm [3] | mortality at 200 ppm [2] | percent effect (mortality or growth inhibition) at 200 ppm [4] | percent control (mortality, anti-feedant effect or growth inhibition) at 200 ppm [5]

CCS(=O)(=O)c1ccc(NC)nc1-c1cc2ccn(CC(F)(F)C(F)(F)F)c2cn1 [Compound P24, 5-ethylsulfonyl-N-methyl-6-[1-(2,2,3,3,3-pentafluoropropyl)pyrrolo[2,3-c]pyridin-5-yl]pyridin-2-amine]
≥ 80%: percent effect (mortality or growth inhibition) at 200 ppm [1] | percent effect (mortality or growth inhibition) at 200 ppm [3] | mortality at 200 ppm [2] | percent effect (mortality or growth inhibition) at 200 ppm [4] | percent control (mortality, anti-feedant effect or growth inhibition) at 200 ppm [5]

CCS(=O)(=O)c1ccc(N2CCOC2=O)nc1-c1cc2cnn(CC(F)(F)C(F)(F)F)c2cn1 [Compound P27, 3-[5-ethylsulfonyl-6-[1-(2,2,3,3,3-pentafluoropropyl)pyrazolo[3,4-c]pyridin-5-yl]-2-pyridyl]oxazolidin-2-one]
≥ 80%: percent effect (mortality or growth inhibition) at 200 ppm [3] | mortality at 200 ppm [2] | percent control (mortality, anti-feedant effect or growth inhibition) at 200 ppm [5]

CCS(=O)(=O)c1ccc(-n2cncn2)nc1-c1cc2ncn(CC(F)(F)C(F)(F)F)c2cn1 [Compound P32, 6-[3-ethylsulfonyl-6-(1,2,4-triazol-1-yl)-2-pyridyl]-3-(2,2,3,3,3-pentafluoropropyl)imidazo[4,5-c]pyridine]
≥ 80%: percent effect (mortality or growth inhibition) at 200 ppm [1] | percent effect (mortality or growth inhibition) at 200 ppm [3] | mortality at 200 ppm [2] | percent effect (mortality or growth inhibition) at 200 ppm [4]

CCS(=O)(=O)c1ccc(N(C)C(=O)NC)nc1-c1cc2cnn(CC(F)(F)C(F)(F)F)c2cn1 [Compound P33, 1-[5-ethylsulfonyl-6-[1-(2,2,3,3,3-pentafluoropropyl)pyrazolo[3,4-c]pyridin-5-yl]-2-pyridyl]-1,3-dimethyl-urea]
≥ 80%: percent effect (mortality or growth inhibition) at 200 ppm [1] | percent effect (mortality or growth inhibition) at 200 ppm [3] | mortality at 200 ppm [2] | percent effect (mortality or growth inhibition) at 200 ppm [4] | percent control (mortality, anti-feedant effect or growth inhibition) at 200 ppm [5]

CCSc1cccnc1-c1cc2ncn(CC(F)(F)C(F)(F)F)c2cn1 [Compound P44, 6-(3-ethylsulfanyl-2-pyridyl)-3-(2,2,3,3,3-pentafluoropropyl) imidazo[4,5-c]pyridine]
≥ 80%: mortality at 24 ppm [6] | mortality at 200 ppm [2]

CCS(=O)(=O)c1cc(-n2ccc(Cl)n2)cnc1-c1cc2cnn(CC(F)(F)C(F)(F)F)c2cn1 [Compound P46, 5-[5-(3-chloropyrazol-1-yl)-3-ethylsulfonyl-2-pyridyl]-1-(2,2,3,3,3-pentafluoropropyl) pyrazolo[3,4-c]pyridine]
≥ 80%: percent effect (mortality or growth inhibition) at 200 ppm [1] | percent effect (mortality or growth inhibition) at 200 ppm [3] | mortality at 200 ppm [2] | percent effect (mortality or growth inhibition) at 200 ppm [4] | percent control (mortality, anti-feedant effect or growth inhibition) at 200 ppm [5]

CCS(=O)(=O)c1cc(C2CC2)cnc1-c1cc2ncn(CC(F)(F)C(F)(F)F)c2cn1 [Compound P52, 6-(5-cyclopropyl-3-ethylsulfonyl-2-pyridyl)-3-(2,2,3,3,3-pentafluoropropyl) imidazo[4,5-c]pyridine]
≥ 80%: percent effect (mortality or growth inhibition) at 200 ppm [1] | percent effect (mortality or growth inhibition) at 200 ppm [3] | mortality at 24 ppm [6] | percent effect (mortality or growth inhibition) at 200 ppm [4] | percent control (mortality, anti-feedant effect or growth inhibition) at 200 ppm [5]
